Results on one compound are retold here after publication PMC10410612 (2023).

For experiment [1], the system named is poly(rA)·poly(rU) (RNA, polymer) A/U. The experiment can be described thus: UV melting. Particulars: NaCac 2.5 mM; pH 7.0; 1:1 ratio complex/polynucleotide; free Tm 47.9 °C; per base.
For experiment [2], the system named is poly(rU)*poly(rA)·poly(rU) (RNA, polymer) U/A/U. Kind of experiment: UV-vis absorbance titration, HypSpec2014 fit. Particulars: NaCac 2.5 mM; pH 7.0, 25.0 °C; per base triplet, site size n = 1.
Experiment [3] shares this test system. The experiment can be described thus: UV melting. Particulars: NaCac 2.5 mM; pH 7.0; 1:1 ratio complex/polynucleotide; free Tm 46.9 °C; per base.
Experiment [4] deals with poly(rA)·poly(rU) (RNA, polymer) A/U. Kind of experiment: ethidium bromide displacement fluorescence. Conditions: NaCac 2.5 mM; pH 7.0; tracer ethidium bromide; some interaction.
For experiment [5] the test system is unchanged. Kind of experiment: UV-vis absorbance titration, HypSpec2014 fit. Conditions: NaCac 2.5 mM; pH 7.0, 25.0 °C; per base pair, site size n = 1.

On to `C=[C-]c1cccc(OC(=O)c2ccccc2OC(C)=O)c1.[C-]#[O+].[C-]#[O+].[C-]#[O+].[Ru+2].[Ru+2].c1cc[cH-]c1.c1cc[cH-]c1`, for which the ΔTm (as a rule, the change in melting temperature against a reference sample) is -6.5 ± 0.9 °C in experiment [1] and 1.6 ± 0.5 °C in experiment [3]. Moreover, the K result in experiment [2] was “(3.1 ± 0.9) × 10^5”; in experiment [5], “(6.0 ± 0.9) × 10^5”. In addition, the binding result in experiment [4] was “yes”.
